Measurements as given in patent publication US20060035905A1, “Formulations of phosphodiesterase 5 inhibitors and methods of use” (Becton, Dickinson and Company, priority 2004, published 2006).
Where two headings read alike, the source gives them in different places. Marks after values point to notes of the source that are not given here. Blank lines part the entries; values can stand above or below the compound they belong to.

How the values were obtained:
[1] = for Clearance: dose normalized; for Bioavailability: versus IV mesylate
in vivo = experiment: in vivo; parameters: species or system Sprague-Dawley rats; details: rat
Procedure: Animal surgery: The rat's femoral vein was cannulated for blood sampling for every group. For IN rats, an incision was made in the trachea and a polypropylene tube was inserted as an airway. To seal the pass way between the nasal cavity and trachea, a sealed tube was inserted through the same incision into the posterior of nasal cavity. Finally the nasopalatine was closed with an adhesive.
Blood samples were drawn from the femoral vein at predetermined time points.
20 μl of 12% perchloric acid was added to 80 μl rat serum followed by vortexing. Then 100 μl of water was added to achieve the sample volume required by HPLC assay.

[2] = IV, up to last sampling time point

Compound: sildenafil mesylate
MRT ([1]; ID 1.5 mm): 1.90 h
Terminal t½ ([1]; ID 1.5 mm): 2.27 h
Tmax ([1]; ID 1.5 mm): 0.083^c hr
Clearance ([1]; ID 1.5 mm): 42.2835 mL/min/kg
AUC ([1]; ID 1.5 mm, up to last sampling time point): 116.21 ng·h/mL
Bioavailability ([1]; ID 1.5 mm): 56.95^c %
Bioavailability ([1]; ID 1.5 mm, listed as mesylate salt): ~55%
Cmax ([1]; ID 1.5 mm, ~5 mg sildenafil, average): 93.13 ng/mL
MRT ([1]; ID 2.0 mm): 2.27 h
Terminal t½ ([1]; ID 2.0 mm): 3.83 h
Tmax ([1]; ID 2.0 mm): 0.18 h
Clearance ([1]; ID 2.0 mm): 35.7202 mL/min/kg
AUC ([1]; ID 2.0 mm, up to last sampling time point): 133.56 ng·h/mL
Bioavailability ([1]; ID 2.0 mm): 66.79^c %
Cmax ([1]; ID 2.0 mm, ~5 mg sildenafil, average): 70.98 ng/mL
Terminal t½ ([1]; IV): 3.01 h
Clearance ([1]; IV): 23.558 mL/min/kg
AUC [1, 2]: 229.41 ng·h/mL
MRT [1, 2]: 1.90 h
Cmax ([1]; IV, ~5 mg sildenafil, average): 307.35 ng/mL
Tmax ([1]; IV, ~5 mg sildenafil, average): 0.0^b hr
MRT ([1]; SC): 2.43 h
Terminal t½ ([1]; SC): 2.84 h
Tmax ([1]; SC): 0.12 h
Clearance ([1]; SC): 45.6718 mL/min/kg
AUC ([1]; SC, up to last sampling time point): 120.13 ng·h/mL
Bioavailability ([1]; SC): 54.77^c %
Bioavailability ([1]; SC, listed as mesylate salt): ~55%
Cmax ([1]; SC, ~5 mg sildenafil, average): 111.28 ng/mL

Cmax (in vivo; Sprague-Dawley): 547 ng/mL
concentration at 5 min (in vivo; Sprague-Dawley): 428 ng/mL
time of maximum systemic concentration (in vivo; Sprague-Dawley): around 15 min
time of peak serum concentration (in vivo; Sprague-Dawley): approximately 10 minutes
Cmax (in vivo; Sprague-Dawley, Cmax): ~1000 ng/mL
time of Cmax (in vivo; sc): 30 to 60 min
Compound: CCCc1nn(C)c2c(=O)[nH]c(-c3cc(S(=O)(=O)N4CCN(C)CC4)ccc3OCC)nc12 [sildenafil]
maximum serum drug level (in words) (in vivo; sc): comparable maximum serum drug level to the ID group

Compound: sildenafil acetate
MRT ([1]; ID 1.5 mm): 1.85 h
Terminal t½ ([1]; ID 1.5 mm): 2.19 h
